US11377442B2, “Small molecule agonists and antagonists of NR2F6 activity” (ZANDER THERAPEUTICS, INC., priority 2016, dated 2022)

Biological target: T1, NR2F6 (Homo sapiens, UniProt P10588)
T1 construct: expressed in transfected cells; also transient transfection
T1 sequence (P10588 1-404): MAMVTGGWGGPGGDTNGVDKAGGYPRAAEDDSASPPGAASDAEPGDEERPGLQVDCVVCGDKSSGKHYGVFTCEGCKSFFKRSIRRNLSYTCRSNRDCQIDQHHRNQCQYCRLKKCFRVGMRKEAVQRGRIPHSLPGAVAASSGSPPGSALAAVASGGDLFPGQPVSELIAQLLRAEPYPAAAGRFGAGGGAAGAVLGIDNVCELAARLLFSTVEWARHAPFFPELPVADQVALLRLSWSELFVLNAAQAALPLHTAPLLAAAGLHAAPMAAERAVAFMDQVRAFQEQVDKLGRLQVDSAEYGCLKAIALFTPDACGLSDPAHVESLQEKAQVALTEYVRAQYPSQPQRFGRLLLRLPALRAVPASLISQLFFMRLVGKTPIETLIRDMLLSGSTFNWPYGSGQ
Test: NR2F6 agonist screening, Firefly signal cmpd/DMSO
Type: cell-based
Conditions: for Firefly/Renilla (NR2F6 stable, clone F4): ratio Firefly/Renilla; for Firefly, NR2F6 stable (clone F4)/pGL4: ratio of Firefly in NR2F6 stable clone F4 to pGL4

[1] = C11 analogs follow set (Tables 2-10)

Row | Structure (SMILES) | Firefly, cmpd/DMSO repeat 1 [1] | Firefly, cmpd/DMSO repeat 2 [1] | further results
1 | COc1ccc(NC(=O)c2ccc3oc(=O)c(S(=O)(=O)c4ccccc4)cc3c2)cc1 [Compound C177] | 17.4 | 8.2 | Firefly/Renilla (NR2F6 stable, clone F4) (Table 12): 2.3; Firefly, NR2F6 stable (clone F4)/pGL4 (Table 12): 8.5; Firefly, cmpd/DMSO repeat 1 (Table 12): 17.4; Firefly, cmpd/DMSO repeat 2 (Table 12): 8.2
2 | COc1ccc(NC(=O)c2ccc3oc(=O)c(S(=O)(=O)c4ccc(C)cc4)cc3c2)cc1 [Compound C178] | 15.2 | 16.9 | 
3 | COc1ccc(NC(=O)c2ccc3oc(=O)c(S(=O)(=O)c4ccc(F)cc4)cc3c2)cc1 [Compound C179] | 8.7 | 10.1 | 
4 | COc1ccc(NC(=O)c2ccc3oc(=O)c(S(=O)(=O)c4ccc(Cl)cc4)cc3c2)cc1 [Compound C180] | 34.0 | 34.5 | Firefly/Renilla (NR2F6 stable, clone F4) (Table 13): 1.1; Firefly, NR2F6 stable (clone F4)/pGL4 (Table 13): 13.1; Firefly, cmpd/DMSO repeat 1 (Table 13): 34.0; Firefly, cmpd/DMSO repeat 2 (Table 13): 34.5
5 | CCOc1ccccc1NC(=O)c1ccc2oc(=O)c(S(=O)(=O)c3ccc(F)cc3)cc2c1 [Compound C181] | 10.4 | 13.5 | 
6 | O=c1oc2ccc(Cl)cc2cc1S(=O)(=O)c1cccc(F)c1 [Compound C182] | 16.2 | 17.3 | Firefly/Renilla (NR2F6 stable, clone F4) (Table 13): 1.2; Firefly, NR2F6 stable (clone F4)/pGL4 (Table 13): 8.2; Firefly, cmpd/DMSO repeat 1 (Table 13): 16.2; Firefly, cmpd/DMSO repeat 2 (Table 13): 17.3
7 | O=c1oc2ccc(Br)cc2cc1S(=O)(=O)c1cccc(F)c1 [Compound C183] | 1.2 | 1.2 | 
8 | COc1cccc(S(=O)(=O)c2cc3cc(Cl)ccc3oc2=O)c1 [Compound C184] | 1.1 | 1.4 | 
9 | COc1cccc(S(=O)(=O)c2cc3cc(Br)ccc3oc2=O)c1 [Compound C185] | 2.6 | 2.4 | 
10 | Cc1cc(C)cc(S(=O)(=O)c2cc3cc(Cl)ccc3oc2=O)c1 [Compound C186] | 1.0 | 6.9 | 
11 | Cc1cc(C)cc(S(=O)(=O)c2cc3cc(Br)ccc3oc2=O)c1 [Compound C187] | 0.8 | 0.7 | 
12 | Cc1ccc(S(=O)(=O)c2cc3cc(Cl)ccc3oc2=O)cc1Cl [Compound C188] | 9.4 | 8.7 | Firefly/Renilla (NR2F6 stable, clone F4) (Table 13): 1.2; Firefly, NR2F6 stable (clone F4)/pGL4 (Table 13): 5.0; Firefly, cmpd/DMSO repeat 1 (Table 13): 9.4; Firefly, cmpd/DMSO repeat 2 (Table 13): 8.7
13 | Cc1ccc(S(=O)(=O)c2cc3cc(Br)ccc3oc2=O)cc1Cl [Compound C189] | 2.8 | 2.2 | 
14 | Cc1cc(C)cc(S(=O)(=O)c2cc3cc(F)ccc3oc2=O)c1 [Compound C190] | 2.1 | 2.5 | 
15 | O=c1oc2ccc(Cl)cc2cc1S(=O)(=O)c1cccc(Cl)c1 [Compound C191] | 8.6 | 12.8 | 
16 | O=c1oc2ccc(Br)cc2cc1S(=O)(=O)c1cccc(Cl)c1 [Compound C192] | 1.8 | 2.4 | 
17 | O=c1oc2ccc(Br)cc2cc1S(=O)(=O)c1cc(F)cc(F)c1 [Compound C193] | 1.8 | 1.9 | 
18 | O=c1oc2ccc(Cl)cc2cc1S(=O)(=O)c1cc(F)cc(F)c1 [Compound C194] | 10.6 | 6.3 | Firefly/Renilla (NR2F6 stable, clone F4) (Table 13): 1.3; Firefly, NR2F6 stable (clone F4)/pGL4 (Table 13): 6.6; Firefly, cmpd/DMSO repeat 1 (Table 13): 10.6; Firefly, cmpd/DMSO repeat 2 (Table 13): 6.3
19 | N#Cc1cccc(S(=O)(=O)c2cc3cc(Cl)ccc3oc2=O)c1 [Compound C195] | 38.7 | 29.4 | Firefly/Renilla (NR2F6 stable, clone F4) (Table 12): 2.1; Firefly, NR2F6 stable (clone F4)/pGL4 (Table 12): 7.7; Firefly, cmpd/DMSO repeat 1 (Table 12): 38.7; Firefly, cmpd/DMSO repeat 2 (Table 12): 29.4
20 | N#Cc1cccc(S(=O)(=O)c2cc3cc(Br)ccc3oc2=O)c1 [Compound C196] | 3.8 | 3.4 | 
21 | Cc1ccc(S(=O)(=O)c2cc3cc(Br)ccc3oc2=O)cc1 [Compound C197] | 17.6 | 14.8 | Firefly/Renilla (NR2F6 stable, clone F4) (Table 13): 1.1; Firefly, NR2F6 stable (clone F4)/pGL4 (Table 13): 6.3; Firefly, cmpd/DMSO repeat 1 (Table 13): 17.6; Firefly, cmpd/DMSO repeat 2 (Table 13): 14.8
22 | O=c1oc2ccc(Br)cc2cc1S(=O)(=O)c1ccc(F)cc1 [Compound C198] | 1.0 | 0.8 | 

Row | Structure (SMILES) | Firefly, cmpd/DMSO repeat 1 [1] | Firefly, cmpd/DMSO repeat 2 [1] | further results
23 | COc1ccc(S(=O)(=O)c2cc3cc(Br)ccc3oc2=O)cc1 [Compound C199] | 19.3 | 16.1 | 
24 | CC(C)(C)c1ccc(S(=O)(=O)c2cc3cc(Br)ccc3oc2=O)cc1 [Compound C200] | 11.0 | 8.1 | Firefly/Renilla (NR2F6 stable, clone F4) (Table 13): 1.2; Firefly, NR2F6 stable (clone F4)/pGL4 (Table 13): 5.4; Firefly, cmpd/DMSO repeat 1 (Table 13): 11.0; Firefly, cmpd/DMSO repeat 2 (Table 13): 8.1
25 | O=c1oc2ccc(Cl)cc2cc1S(=O)(=O)c1ccccc1 [Compound C201] | 6.1 | 5.3 | 
26 | Cc1ccc(S(=O)(=O)c2cc3cc(Cl)ccc3oc2=O)cc1 [Compound C202] | 15.7 | 14.1 | Firefly/Renilla (NR2F6 stable, clone F4) (Table 12): 1.7; Firefly, NR2F6 stable (clone F4)/pGL4 (Table 12): 6.1; Firefly, cmpd/DMSO repeat 1 (Table 12): 15.7; Firefly, cmpd/DMSO repeat 2 (Table 12): 14.1
27 | COc1ccc(S(=O)(=O)c2cc3cc(Cl)ccc3oc2=O)cc1 [Compound C203] | 9.5 | 15.5 | 
28 | O=c1oc2ccc(Cl)cc2cc1S(=O)(=O)c1ccc(Br)cc1 [Compound C204] | 5.0 | 5.8 | 
29 | CC(C)(C)c1ccc(S(=O)(=O)c2cc3cc(Cl)ccc3oc2=O)cc1 [Compound C205] | 6.9 | 6.0 | 
30 | COc1ccc2oc(=O)c(S(=O)(=O)c3ccccc3)cc2c1 [Compound C206] | 2.1 | 1.8 | 
31 | COc1ccc(S(=O)(=O)c2cc3cc(OC)ccc3oc2=O)cc1 [Compound C207] | 2.5 | 2.8 | 
32 | COc1ccc2oc(=O)c(S(=O)(=O)c3ccc(Br)cc3)cc2c1 [Compound C208] | 0.8 | 0.9 | 
33 | COc1ccc2oc(=O)c(S(=O)(=O)c3ccc(C(C)(C)C)cc3)cc2c1 [Compound C209] | 3.1 | 4.2 | Firefly/Renilla (NR2F6 stable, clone F4) (Table 13): 3.6; Firefly, NR2F6 stable (clone F4)/pGL4 (Table 13): 3.1; Firefly, cmpd/DMSO repeat 1 (Table 13): 3.1; Firefly, cmpd/DMSO repeat 2 (Table 13): 4.2
34 | O=c1oc2ccc([N+](=O)[O-])cc2cc1S(=O)(=O)c1ccccc1 [Compound C210] | 22.8 | 14.3 | Firefly/Renilla (NR2F6 stable, clone F4) (Table 13): 1.5; Firefly, NR2F6 stable (clone F4)/pGL4 (Table 13): 8.2; Firefly, cmpd/DMSO repeat 1 (Table 13): 22.8; Firefly, cmpd/DMSO repeat 2 (Table 13): 14.3
35 | Cc1ccc(S(=O)(=O)c2cc3cc([N+](=O)[O-])ccc3oc2=O)cc1 [Compound C211] | 5.8 | 17.7 | 
36 | O=c1oc2ccc(F)cc2cc1S(=O)(=O)c1ccccc1 [Compound C212] | 1.7 | 1.9 | 
37 | O=c1oc2ccc(F)cc2cc1S(=O)(=O)c1ccc(F)cc1 [Compound C213] | 14.0 | 13.6 | Firefly/Renilla (NR2F6 stable, clone F4) (Table 13): 1.6; Firefly, NR2F6 stable (clone F4)/pGL4 (Table 13): 9.6; Firefly, cmpd/DMSO repeat 1 (Table 13): 14.0; Firefly, cmpd/DMSO repeat 2 (Table 13): 13.6
38 | COc1ccc(S(=O)(=O)c2cc3cc(F)ccc3oc2=O)cc1 [Compound C214] | 1.9 | 1.9 | 
39 | O=c1oc2ccc(F)cc2cc1S(=O)(=O)c1ccc(Br)cc1 [Compound C215] | 11.6 | 13.8 | 
40 | CC(C)(C)c1ccc(S(=O)(=O)c2cc3cc(F)ccc3oc2=O)cc1 [Compound C216] | 1.3 | 1.0 | 
41 | Cc1cc(S(=O)(=O)c2cc3cc(F)ccc3oc2=O)ccc1F [Compound C217] | 1.8 | 1.4 | 
42 | O=c1oc2ccc(F)cc2cc1S(=O)(=O)c1ccc(Cl)cc1 [Compound C218] | 18.2 | 19.1 | Firefly/Renilla (NR2F6 stable, clone F4) (Table 12): 1.7; Firefly, NR2F6 stable (clone F4)/pGL4 (Table 12): 9.5; Firefly, cmpd/DMSO repeat 1 (Table 12): 18.2; Firefly, cmpd/DMSO repeat 2 (Table 12): 19.1
43 | O=c1oc2ccc(Br)cc2cc1S(=O)(=O)c1ccccc1F [Compound C219] | 1.3 | 2.5 | 
